# US20260240862A1, “COMBINATION OF ROGINOLISIB AND BCL-2 INHIBITOR IN THE TREATMENT OF HAEMATOLOGICAL MALIGNANCY” (IONCTURA SA, priority 2023, published 2026)
# Columns and labels:
# [1] = test system: Granta519 (MCL); experiment: MTT antiproliferation assay, combination of Compound 1 and BCL-2 inhibitor, Chou-Talalay Combination Index; type: cell-based; details: BCL-2 inhibitor in combination with Compound 1, 72 hours
# Description: (§1) Venetoclax, S55746, S64315, and S63845, were used at a maximum concentration of 10 μM, following an eight fold dose response based on 1:4 compound dilutions plus an untreated control.
# (§2) Cells were incubated for 72 hours at 37° C. and 5% CO2. The antiproliferative effect of single and combination treatments were determined by adding 20 μL MTT [3-(4,5-dimethylthiazolyl-2)-2, 5-diphenyltetrazoliumbromide]reagent (Sigma Aldrich, Buchs, Switzerland) to each well and the plates were incubated at 37° C. for 4 hours, followed by adding 50 μL of sodium dodecyl sulfate (SDS) (250 μM SDS, 0.21% fuming HCl) lysis buffer. The lysed cells were kept overnight, and then the absorbance was read at 570 nm using the Cytation 3 instrument (BioTek, Winoosku, VT, USA). […] The effect of the combinations was defined as strongly synergistic for CI values below <0.3, synergistic for CI values between 0.3 and 0.9, additive for CI values between 0.9 and 1.1, and antagonistic for CI values >1.1.
# [2] = test system: TMD8 (DLBCL); experiment: as above; type: cell-based; details: BCL-2 inhibitor in combination with Compound 1, 72 hours
# Description: as §1, §2
# [3] = test system: MJ (CTCL); experiment: as above; type: cell-based; details: BCL-2 inhibitor in combination with Compound 1, 72 hours
# Description: as §1, §2
# [4] = test system: JVM2 (MCL); experiment: as above; type: cell-based; details: BCL-2 inhibitor in combination with Compound 1, 72 hours
# Description: as §1, §2
# [5] = test system: MEC1 (CLL); experiment: as above; type: cell-based; details: BCL-2 inhibitor in combination with Compound 1, 72 hours
# Description: as §1, §2
# [6] = test system: SP49 (MCL); experiment: as above; type: cell-based; details: BCL-2 inhibitor in combination with Compound 1, 72 hours
# Description: as §1, §2
# [7] = test system: DNMT; details: more than that of azacytidine (Zhang 2022); cited from earlier work
Structure (SMILES),CI value (median) [1],CI value (median) [2],CI value (median) [3],CI value (median) [4],CI value (median) [5],CI value (median) [6],inhibitory activity of DNMT relative to azacytidine [7] [times]
"Cc1c(-c2c(-c3ccc(F)o3)sc3ncnc(O[C@H](Cc4ccccc4OCc4ccnn4CC(F)(F)F)C(=O)O)c23)ccc(OCCN2CCN(C)CC2)c1Cl (atropisomer, axis not shown) [Compound S63845, (R)-2-((5-(3-chloro-2-methyl-4-(2-(4-methylpiperazin-1-yl)ethoxy)phenyl)-6-(5-fluorofuran-2-yl)thieno[2,3-d]pyrimidin-4-yl)oxy)-3-(2-((1-(2,2,2-trifluoroethyl)-1H-pyrazol-5-yl)methoxy)phenyl)propanoic acid]",0.47,0.86,0.67,0.33,–,–,–
"COc1ccccc1-c1nccc(COc2ccccc2C[C@@H](Oc2ncnc3sc(-c4ccc(F)cc4)c(-c4ccc(OCCN5CCN(C)CC5)c(Cl)c4C)c23)C(=O)O)n1 (atropisomer, axis not shown) [Compound S64315, (R)-2-((5-(3-chloro-2-methyl-4-(2-(4-methylpiperazin-1-yl)ethoxy)phenyl)-6-(4-fluorophenyl)thieno[2,3-d]pyrimidin-4-yl)oxy)-3-(2-((2-(2-methoxyphenyl)pyrimidin-4-yl)methoxy)phenyl)propanoic acid]",–,0.23,–,0.24,0.88,0.71,–
"O=C(c1cc(-c2cc3c(cc2C(=O)N2Cc4ccccc4C[C@H]2CN2CCOCC2)OCO3)n2c1CCCC2)N(c1ccccc1)c1ccc(O)cc1 [Compound S55746, (S)—N-(4-hydroxyphenyl)-3-(6-(3-(morpholinomethyl)-1,2,3,4-tetrahydroisoquinoline-2-carbonyl)benzo[d][1,3]dioxol-5-yl)-N-phenyl-5,6,7,8-tetrahydroindolizine-1-carboxamide]",–,0.4,–,0.46,0.21,–,–
"Nc1ncn([C@H]2C[C@H](O)[C@@H](CO)O2)c(=O)n1 [Decitabine, 5-aza-2′-deoxycytidine]",–,–,–,–,–,–,30
"CC1(C)CCC(CN2CCN(c3ccc(C(=O)NS(=O)(=O)c4ccc(NCC5CCOCC5)c([N+](=O)[O-])c4)c(Oc4cnc5[nH]ccc5c4)c3)CC2)=C(c2ccc(Cl)cc2)C1 [Venetoclax, 4-(4-{[2-(4-Chlorophenyl)-4,4-dimethyl-1-cyclohexen-1-yl]methyl}-1-piperazinyl)-N-({3-nitro-4-[(tetrahydro-2H-pyran-4-ylmethyl)amino]phenyl}sulfonyl)-2-(1H-pyrrolo[2,3-b]pyridin-5-yloxy)benzamide]",0.81,–,0.47,0.15,0.05,–,–
